# According to US9121067B2, “Predictive marker for EGFR inhibitor treatment” (Hoffmann-La Roche Inc., priority 2007, dated 2015):
# Tests used:
# [1] = system: patients with advanced NSCLC following failure of at least one prior chemotherapy regimen; assay: open-label Phase II predictive marker study, response assessment by RECIST; format: in vivo, human
# Protocol: Based on the experience from the BR.21 study, benefiting population was defined as either having objective response, or disease stabilization for 12 weeks. Clinical and microarray datasets were analyzed according to a pre-defined statistical plan.
# This was an open-label, predictive marker identification Phase II study. The study was conducted in approximately 26 sites in about 12 countries. 264 patients with advanced NSCLC following failure of at least one prior chemotherapy regimen were enrolled over a 12 month period. […] Dose reductions were permitted based on tolerability to drug therapy. Clinical and laboratory parameters were assessed to evaluate disease control and toxicity. Treatment continued until disease progression, unacceptable toxicity or death. The study design is depicted in FIG. 1.
# The RECIST (Uni-dimensional Tumour Measurement) criteria were used to evaluate response.
# To be assigned a status of CR or PR, changes in tumour measurements must be confirmed by repeated assessments at least 4 weeks apart at any time during the treatment period.
# In the case of SD, follow-up measurements must have met the SD criteria at least once after study entry at a minimum interval of 6 weeks.
# In the case of maintained SD, follow-up measurements must have met the SD criteria at least once after study entry with maintenance duration of at least 12 weeks.
# [2] = patients with cancer receiving 150 mg/day; 500 ng/ml is the average plasma concentration targeted for clinical efficacy; cited from earlier work
# [3] = system: NSCLC patients for whom standard therapy for advanced disease has failed; details: single agent versus placebo; cited from earlier work
# [4] = 75 patients with qRT-PCR results
# [5] = n = 102, benefit = objective response or disease stabilization for >=12 weeks
# [6] = patients included in microarray analysis n = 102, oral 150 mg/day
smiles,measurement,setting,value
"C#Cc1cccc(Nc2ncnc3cc(OCCOC)c(OCCOC)cc23)c1 [Tarceva, erlotinib]",patients with PD,[1]; [4],52%
same,patients with SD,[1]; [4],31%
same,patients with partial response (PR),[1]; [4],5%
same,"Clinical Benefit NO, n (%)",[1]; [5],81 (79.4%)
same,"Clinical Benefit YES, n (%)",[1]; [5],21 (20.6%)
same,"Best Response PD, n (%)",[1]; [6],49 (48.0%)
same,"Best Response PR, n (%)",[1]; [6],6 (5.9%)
same,"Best Response SD, n (%)",[1]; [6],31 (30.4%)
same,drug levels in plasma,[2],> 500 ng/mL
same,survival,[3],significantly prolongs and improves the survival
